Data on six compounds can be found in publication PMC7178819, “6,7-Dimethoxy-2-phenethyl-1,2,3,4-tetrahydroisoquinoline amides and corresponding ester isosteres as multidrug resistance reversers” (Journal of Enzyme Inhibition and Medicinal Chemistry, 2020).

Structures can show the parent of a compound that is named as a salt. Where only a bound is given, the exact number is not on record here.

The test system of one data set is MDCK-MDR1 cells. Put plainly: Co-administration assay with doxorubicin (MTT), MDCK-MDR1 cells. The format is cell-based, canine. The note with it: 10 µM, MDCK cells overexpressing P-gp. The method, then: The co-administration assay with doxorubicin was performed in MDCK-MDR1, HT29, HT29/DX, A549 and A549/DX cells at 48 h. On day 1, 10,000 cells/well were seeded into 96-well plates in a volume of 100 µL of fresh medium. On day 2, the tested drug was added alone to the cells at different concentrations (ranging from 40 nM to 10 µM). On day 3, the medium was removed and the drug at the same concentrations was added alone and in co-administration with 10 µM doxorubicin to the cells. After the established incubation time with the tested drug, MTT (0.5 mg/mL) was added to each well, and after 3 − 4 h incubation at 37 °C, the supernatant was removed. The formazan crystals were solubilised using 100 µL of DMSO/EtOH (1:1), and the absorbance values at 570 and 630 nm were determined on the microplate reader HTX Synergy (Bio-Tek Instruments).

For data set [1], the target named is T1, P-gp (Homo sapiens, UniProt P08183).
T1 construct: expressed in transfected cells; host or cells: MDCK-MDR1 (Madin-Darby Canine Kidney cells, gift of Prof. P. Borst, NKI-AVL)
T1 sequence (P08183 whole entry): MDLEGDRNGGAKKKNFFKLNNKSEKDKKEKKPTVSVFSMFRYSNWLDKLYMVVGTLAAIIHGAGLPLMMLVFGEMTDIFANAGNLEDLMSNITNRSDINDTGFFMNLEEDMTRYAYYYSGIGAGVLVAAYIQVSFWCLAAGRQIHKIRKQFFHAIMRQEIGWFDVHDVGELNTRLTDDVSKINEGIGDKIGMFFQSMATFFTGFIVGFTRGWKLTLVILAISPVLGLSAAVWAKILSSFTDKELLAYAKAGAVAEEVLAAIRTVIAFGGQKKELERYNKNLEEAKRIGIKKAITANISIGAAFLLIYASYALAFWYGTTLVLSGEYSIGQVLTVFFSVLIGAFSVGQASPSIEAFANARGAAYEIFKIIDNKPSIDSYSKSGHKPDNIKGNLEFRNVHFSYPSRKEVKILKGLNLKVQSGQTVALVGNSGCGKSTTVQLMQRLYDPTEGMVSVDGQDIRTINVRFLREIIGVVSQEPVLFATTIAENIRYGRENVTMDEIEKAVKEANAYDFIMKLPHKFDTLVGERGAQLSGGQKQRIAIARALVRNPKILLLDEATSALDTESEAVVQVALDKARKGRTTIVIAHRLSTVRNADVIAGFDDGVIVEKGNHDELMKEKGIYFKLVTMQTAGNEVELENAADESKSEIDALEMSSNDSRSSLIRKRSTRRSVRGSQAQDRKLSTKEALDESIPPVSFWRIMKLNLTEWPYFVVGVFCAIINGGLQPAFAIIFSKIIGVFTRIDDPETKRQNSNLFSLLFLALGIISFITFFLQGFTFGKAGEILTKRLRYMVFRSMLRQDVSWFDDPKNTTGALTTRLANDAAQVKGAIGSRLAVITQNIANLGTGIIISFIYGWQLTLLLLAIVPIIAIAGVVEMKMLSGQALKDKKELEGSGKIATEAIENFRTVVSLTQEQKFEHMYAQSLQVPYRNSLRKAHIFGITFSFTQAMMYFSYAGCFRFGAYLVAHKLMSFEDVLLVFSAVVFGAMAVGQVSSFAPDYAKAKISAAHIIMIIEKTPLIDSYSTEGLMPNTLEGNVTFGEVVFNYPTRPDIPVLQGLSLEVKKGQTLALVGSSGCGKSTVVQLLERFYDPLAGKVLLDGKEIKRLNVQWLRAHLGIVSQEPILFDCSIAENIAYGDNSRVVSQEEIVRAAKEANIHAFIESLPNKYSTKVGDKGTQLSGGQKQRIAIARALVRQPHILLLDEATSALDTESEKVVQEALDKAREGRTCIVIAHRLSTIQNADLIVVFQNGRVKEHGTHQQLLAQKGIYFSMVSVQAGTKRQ
Put plainly: Inhibition of Calcein-AM transport in MDCK-MDR1 cells. The format is cell-based. The note with it: Calcein-AM, MDCK-MDR1 cells; mean ± SEM of two experiments. The method, then:
These experiments were carried out as previously described by Teodori et al. with minor modifications. Each cell line (30 000 cells per well) was seeded into black CulturePlate 96/wells plate with 100 µL medium and allowed to become confluent overnight. 100 µL of test compounds were solubilised in culture medium and added to monolayers, with final concentrations ranging from 1 nM to 100 µM. 96/Wells plate was incubated for 30 min in a humidified atmosphere 5% CO2 at 37 °C. Calcein-AM was added in 100 µL of Phosphate Buffered Saline (PBS) to yield a final concentration of 2.5 µM and plate was incubated for 30 min in a humidified atmosphere 5% CO2 at 37 °C. Each well was washed 3 times with ice cold PBS. Saline buffer was added to each well and the plate was read with Victor3 (PerkinElmer) at excitation and emission wavelengths of 485 and 535 nm, respectively. In these experimental conditions, Calcein cell accumulation in the absence and in the presence of tested compounds was evaluated and fluorescence basal level was estimated with untreated cells. In treated wells the increase of fluorescence with respect to basal level was measured. EC50 values were determined by fitting the fluorescence increase percentage versus log[dose].
The interaction potency between the designed compounds and P-gp was evaluated by measuring the transport inhibition of the pro-fluorescent probe Calcein-AM, that is a P-gp substrate, in a cell line overexpressing P-gp (MDCK-MDR1)[47]. The P-gp interacting profile was further investigated with two other assays: the Apparent Permeability (Papp) determination (BA/AB) in Caco-2 cell monolayer[48]^,[49], and the ATP cell depletion in the MDCK-MDR1 cell line[50]. […] Papp determination measures the ratio between two fluxes: from the basolateral to apical compartments (BA, representative of passive diffusion) and from the apical to basolateral compartments (AB, representative of active transport). […] In the same manner, if (BA/AB) >2, the compound should probably be classified as a substrate.

The target of a further data set is T2, BCRP (Homo sapiens, UniProt Q9UNQ0).
T2 construct: expressed in transfected cells; host or cells: MDCK-BCRP (Madin-Darby Canine Kidney cells, gift of Prof. P. Borst, NKI-AVL)
T2 sequence (Q9UNQ0 1-655): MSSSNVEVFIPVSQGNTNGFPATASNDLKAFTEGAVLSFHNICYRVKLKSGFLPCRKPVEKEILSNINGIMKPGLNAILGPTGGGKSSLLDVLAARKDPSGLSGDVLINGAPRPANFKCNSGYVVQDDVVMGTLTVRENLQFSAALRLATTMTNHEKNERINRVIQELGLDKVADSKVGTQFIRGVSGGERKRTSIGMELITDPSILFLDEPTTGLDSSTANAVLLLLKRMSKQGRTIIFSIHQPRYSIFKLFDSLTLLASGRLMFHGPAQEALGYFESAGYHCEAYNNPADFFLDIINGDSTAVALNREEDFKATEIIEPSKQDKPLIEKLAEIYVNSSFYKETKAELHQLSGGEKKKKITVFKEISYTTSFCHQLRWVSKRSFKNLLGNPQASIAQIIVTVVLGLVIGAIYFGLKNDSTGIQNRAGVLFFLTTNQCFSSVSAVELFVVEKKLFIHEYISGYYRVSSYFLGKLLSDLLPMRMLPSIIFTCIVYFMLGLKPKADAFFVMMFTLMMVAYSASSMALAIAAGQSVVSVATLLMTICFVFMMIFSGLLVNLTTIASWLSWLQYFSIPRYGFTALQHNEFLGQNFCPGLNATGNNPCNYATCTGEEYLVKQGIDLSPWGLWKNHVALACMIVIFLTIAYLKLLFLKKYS
Description: Inhibition of Hoechst 33342 efflux in MDCK-BCRP cells. Format: cell-based. The note with it: Hoechst 33342, MDCK-BCRP cells; NA: not active. The method, then:
These experiments were carried out as described by Teodori et al.[34]. Each cell line (30 000 cells per well) was seeded into black CulturePlate 96/wells plate with 100 µL medium and allowed to become confluent overnight. 100 µL of test compounds were solubilised in culture medium and added to monolayers, with final concentrations ranging from 1 to 100 µM. 96/Wells plate was incubated for 30 min in a humidified atmosphere 5% CO2 at 37 °C. Hoechst 33342 was added in 100 µl of phosphate-buffered saline (PBS) to yield a final concentration of 8 µM and plate was incubated for 30 min in a humidified atmosphere 5% CO2 at 37 °C. The supernatants were drained, and the cells were fixed for 20 min under light protection using 100 µL per well of a 4% PFA solution. Each well was washed three times with ice cold PBS. Saline buffer was added to each well and the plate was read with Victor3 (PerkinElmer) at excitation and emission wavelengths of 340/35 nm and 485/20 nm, respectively. In these experimental conditions, Hoechst 33342 accumulation in the absence and in the presence of tested compounds was evaluated and fluorescence basal level was estimated with untreated cells. In treated wells, the increase of fluorescence with respect to basal level was measured. EC50 values were determined by fitting the fluorescence increase percentage versus log[dose]. […]

Data set [2] concerns the target T1, P-gp. Description: ATP cell depletion (ATPlite assay) in MDCK-MDR1 cells. The format is cell-based. The note with it: Yes/No. The method, then:
The MDCK-MDR1 cells were seeded into 96-well microplate in 100 µL of complete medium at a density 20,000 cells per well. The plate was incubated overnight (O/N) in a humidified atmosphere 5% CO2 at 37 °C. The medium was removed and 100 µL of complete medium either alone or containing different concentrations (ranging from 1 to 100 µM) of test compounds was added. The plate was incubated for 2 h in a humidified 5% CO2 atmosphere at 37 °C. 50 µL of mammalian cell lysis solution was added to all wells and the plate shacked for five minutes in an orbital shaker. 50 µL of substrate solution was added to all wells and the plate shacked for five minutes in an orbital shaker. The plate was dark adapted for ten minutes and the luminescence was measured.
(§1) The interaction potency between the designed compounds and P-gp was evaluated by measuring the transport inhibition of the pro-fluorescent probe Calcein-AM, that is a P-gp substrate, in a cell line overexpressing P-gp (MDCK-MDR1)[47]. The P-gp interacting profile was further investigated with two other assays: the Apparent Permeability (Papp) determination (BA/AB) in Caco-2 cell monolayer[48]^,[49], and the ATP cell depletion in the MDCK-MDR1 cell line[50]. Taking into account the results of the combined tests, an interacting compound can be classified as substrate or inhibitor. Papp determination measures the ratio between two fluxes: from the basolateral to apical compartments (BA, representative of passive diffusion) and from the apical to basolateral compartments (AB, representative of active transport). […] In the same manner, if (BA/AB) >2, the compound should probably be classified as a substrate. […] The selectivity of ligands 1–26 was evaluated by detecting their activity towards the other ABC transporters MRP1 and BCRP, by measuring the inhibition of the efflux of Calcein-AM (i.e., also a MRP1 substrate) in cells overexpressing MRP1 (MDCK-MRP1 cells), and the inhibition of the efflux of the fluorescent probe Hoechst 33342 (i.e. a BCRP substrate) in cells overexpressing BCRP (MDCK-BCRP cells), respectively.
A general note: ATP-based viability assays read luminescence as a measure of living cells.

Data set [3] can be described thus: Apparent permeability (Papp) determination (BA/AB) in Caco-2 cell monolayer. The format is in vitro ADME. The note with it: human, Caco-2 monolayer. The method, then:
Caco-2 cells were seeded onto a Millicell® assay system (Millipore), where a cell monolayer is set in between a filter cell and a receiver plate, at a density of 10 000 cells/well[46]. The culture medium was replaced every 48 h and the cells kept for 21 days in culture. The Trans Epithelial Electrical Resistance (TEER) of the monolayers was measured daily, before and after the experiment, using an epithelial volt-ohmmeter (Millicell®-ERS). Generally, TEER values greater than 1000 Ω for a 21 days culture, are considered optimal.
After 21 days of Caco-2 cell growth, the medium was removed from filter wells and from the receiver plate, which were filled with fresh HBSS buffer (Invitrogen). This procedure was repeated twice, and the plates were incubated at 37 °C for 30 min. After incubation time, the HBSS buffer was removed and drug solutions and reference compounds were added to the filter well at the concentration of 100 µM, while fresh HBSS was added to the receiver plate. The plates were incubated at 37 °C for 120 min. Afterwards, samples were removed from the apical (filter well) and basolateral (receiver plate) side of the monolayer to measure the permeability.
as §1
A general note: Passage across Caco-2 layers is used to estimate intestinal permeability.

For `COc1cc2c(cc1OC)CN(CCc1ccc(NC(=O)c3c(OC)cccc3OC)cc1)CC2` (as salt: hydrochloride) [Compound 4, N-(4–(2-(6,7-dimethoxy-3,4-dihydroisoquinolin-2(1H)-yl)ethyl)phenyl)-2,6-dimethoxybenzamide], the melting point (commonly the temperature of the solid-liquid transition) fell in the range of 212 to 214 °C.

For `COc1cccc2c1C(=O)c1c(O)c3c(c(O)c1C2=O)C[C@@](O)(C(=O)CO)C[C@@H]3O[C@H]1C[C@H](N)[C@H](O)[C@H](C)O1` [doxorubicin, reference compound], in the data set on MDCK-MDR1 cells, the “cytotoxicity of doxorubicin alone” value is “did not show cytotoxicity”.

`COc1ccc2nccc(C(=O)Nc3ccc(CCN4CCc5cc(OC)c(OC)cc5C4)cc3)c2c1` (as salt: hydrochloride) [Compound 13, N-(4–(2-(6,7-dimethoxy-3,4-dihydroisoquinolin-2(1H)-yl)ethyl)phenyl)-6-methoxyquinoline-4-carboxamide] had a melting point of 228 to 230 °C.

With `COc1cc2c(cc1OC)CN(CCc1ccc(NC(=O)c3c(OC)c(OC)cc4ccccc34)cc1)CC2` (as salt: hydrochloride) [Compound 8, N-(4–(2-(6,7-dimethoxy-3,4-dihydroisoquinolin-2(1H)-yl)ethyl)phenyl)-2,3-dimethoxy-1-naphthamide], the melting point fell in the range of 245 to 248 °C.

The compound `COc1cc2c(cc1OC)CN(CCc1ccc(NC(=O)c3c(OC)ccc4ccccc34)cc1)CC2` (as salt: hydrochloride) [Compound 7, N-(4–(2-(6,7-dimethoxy-3,4-dihydroisoquinolin-2(1H)-yl)ethyl)phenyl)-2-methoxy-1-naphthamide] came in with a melting point of 239 to 241 °C.

Turning to `COc1cc2c(cc1OC)CN(CCc1ccc(NC(=O)c3cc(OC)c(OC)cc3NC(=O)c3cnc4ccccc4c3)cc1)CC2` [tariquidar, reference compound], the EC50 (in general, the concentration needed to bring the measured effect to its halfway point) on P-gp [1] was 0.044 ± 0.001 µM; on BCRP, 0.01 ± 0.005 µM. The ATP cell depletion entry at P-gp [2] is recorded as “Yes^f”. The efflux ratio (as a rule, the permeability from basolateral to apical divided by that in the opposite direction, in the common usage) at 120 min, 100 µM in data set [3] was above 20.
